Laboratory results from article PMC9954146, “Anti-Leukaemic Activity of Rilpivirine Is Mediated by Aurora A Kinase Inhibition” (Cancers, 2023).

Assays:
Experiment in all cases: Kinase panel
Assay type in all cases: biochemical
MAP4K4(h) = target: T1, MAP4K4(h) (Homo sapiens, UniProt O95819); conditions: read-out: % Residual Activity
T1 construct: purchased Eurofins (KinaseProfiler)
Procedure, shortened: (§1)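 Cheng–Prusoff conversion of IC50 to Ki; IC50s from radioisotope-based assays at Km(ATP). Kinome-wide rilpivirine profiling.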

PKCδ(h) = target: T2, PKCδ(h) (Homo sapiens, UniProt Q05655); conditions: read-out: % Residual Activity
T2 construct: purchased Eurofins (KinaseProfiler)
Procedure, shortened: as §1

GSK3α(h) = target: T3, GSK3α(h) (Homo sapiens, UniProt P49840); conditions: read-out: % Residual Activity
T3 construct: purchased Eurofins (KinaseProfiler)
Procedure, shortened: as §1

Rsk4(h) = target: T4, Rsk4(h) (Homo sapiens, UniProt Q9UK32); conditions: read-out: % Residual Activity
T4 construct: purchased Eurofins (KinaseProfiler)
Procedure, shortened: as §1

PEK(h) = target: T5, PEK(h) (Homo sapiens, UniProt Q9NZJ5); conditions: read-out: % Residual Activity
T5 construct: purchased Eurofins (KinaseProfiler)
Procedure, shortened: as §1

IRR(h) = target: T6, IRR(h) (Homo sapiens, UniProt P14616); conditions: read-out: % Residual Activity
T6 construct: purchased Eurofins (KinaseProfiler)
T6 sequence (P14616 27-1297): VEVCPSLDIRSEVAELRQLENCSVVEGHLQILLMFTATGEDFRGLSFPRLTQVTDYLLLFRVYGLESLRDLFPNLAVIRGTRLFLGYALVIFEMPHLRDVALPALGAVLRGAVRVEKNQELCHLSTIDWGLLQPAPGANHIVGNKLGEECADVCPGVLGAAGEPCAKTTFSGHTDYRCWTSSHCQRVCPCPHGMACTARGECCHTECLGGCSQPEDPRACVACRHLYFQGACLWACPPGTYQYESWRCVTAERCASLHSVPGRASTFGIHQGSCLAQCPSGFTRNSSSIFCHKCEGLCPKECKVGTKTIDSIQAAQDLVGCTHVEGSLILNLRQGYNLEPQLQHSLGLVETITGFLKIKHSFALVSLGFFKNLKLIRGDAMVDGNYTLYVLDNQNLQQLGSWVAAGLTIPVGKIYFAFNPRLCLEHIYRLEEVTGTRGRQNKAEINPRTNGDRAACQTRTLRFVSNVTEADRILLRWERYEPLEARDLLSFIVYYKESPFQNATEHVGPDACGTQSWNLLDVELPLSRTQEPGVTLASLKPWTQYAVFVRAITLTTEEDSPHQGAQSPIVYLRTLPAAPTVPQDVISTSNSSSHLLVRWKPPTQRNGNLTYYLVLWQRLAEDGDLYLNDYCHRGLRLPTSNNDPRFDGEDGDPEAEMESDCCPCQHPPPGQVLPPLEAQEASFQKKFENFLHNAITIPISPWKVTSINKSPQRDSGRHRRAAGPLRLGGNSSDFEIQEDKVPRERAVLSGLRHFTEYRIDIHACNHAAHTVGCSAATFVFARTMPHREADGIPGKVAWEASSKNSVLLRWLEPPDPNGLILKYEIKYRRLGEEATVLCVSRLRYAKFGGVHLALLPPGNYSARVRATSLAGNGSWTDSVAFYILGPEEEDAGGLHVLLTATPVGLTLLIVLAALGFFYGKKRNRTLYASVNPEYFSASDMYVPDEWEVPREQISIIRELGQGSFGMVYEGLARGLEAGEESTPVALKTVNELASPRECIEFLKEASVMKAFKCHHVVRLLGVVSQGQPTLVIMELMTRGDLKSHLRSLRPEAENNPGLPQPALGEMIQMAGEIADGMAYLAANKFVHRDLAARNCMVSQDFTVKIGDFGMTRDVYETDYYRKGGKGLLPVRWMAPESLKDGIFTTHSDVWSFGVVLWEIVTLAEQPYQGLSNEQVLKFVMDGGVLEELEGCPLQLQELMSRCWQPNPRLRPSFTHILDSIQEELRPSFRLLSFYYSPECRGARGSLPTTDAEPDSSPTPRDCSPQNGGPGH
Procedure, shortened: as §1

FAK(h) = target: T7, FAK(h) (Homo sapiens, UniProt Q05397); conditions: read-out: % Residual Activity
T7 construct: purchased Eurofins (KinaseProfiler)
T7 sequence (Q05397 whole entry): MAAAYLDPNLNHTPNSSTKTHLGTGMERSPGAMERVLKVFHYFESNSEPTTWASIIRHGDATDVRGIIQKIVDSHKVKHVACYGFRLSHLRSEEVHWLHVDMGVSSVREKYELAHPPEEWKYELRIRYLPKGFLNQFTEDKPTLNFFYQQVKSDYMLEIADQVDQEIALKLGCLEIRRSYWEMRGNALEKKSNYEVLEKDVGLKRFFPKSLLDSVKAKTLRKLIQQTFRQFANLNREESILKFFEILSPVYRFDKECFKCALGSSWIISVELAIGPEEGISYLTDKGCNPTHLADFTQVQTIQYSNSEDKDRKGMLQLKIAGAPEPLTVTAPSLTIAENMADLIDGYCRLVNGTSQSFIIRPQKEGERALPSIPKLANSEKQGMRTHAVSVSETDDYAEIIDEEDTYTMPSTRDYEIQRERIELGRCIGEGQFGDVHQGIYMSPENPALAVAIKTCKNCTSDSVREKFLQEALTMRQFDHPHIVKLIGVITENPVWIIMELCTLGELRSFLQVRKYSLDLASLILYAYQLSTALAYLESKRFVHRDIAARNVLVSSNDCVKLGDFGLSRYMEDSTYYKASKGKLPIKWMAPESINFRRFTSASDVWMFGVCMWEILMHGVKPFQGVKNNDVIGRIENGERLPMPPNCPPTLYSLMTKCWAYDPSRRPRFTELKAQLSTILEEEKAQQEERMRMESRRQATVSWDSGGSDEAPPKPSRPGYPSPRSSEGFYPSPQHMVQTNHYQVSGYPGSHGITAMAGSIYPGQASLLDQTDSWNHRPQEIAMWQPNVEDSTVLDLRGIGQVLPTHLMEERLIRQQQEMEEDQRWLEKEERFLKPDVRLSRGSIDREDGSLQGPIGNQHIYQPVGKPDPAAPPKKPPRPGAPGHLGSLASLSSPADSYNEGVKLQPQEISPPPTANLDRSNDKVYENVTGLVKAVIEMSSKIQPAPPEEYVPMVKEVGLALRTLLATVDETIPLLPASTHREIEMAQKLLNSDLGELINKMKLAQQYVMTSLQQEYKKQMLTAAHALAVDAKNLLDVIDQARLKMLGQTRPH
Procedure, shortened: as §1

PKCθ(h) = target: T8, PKCθ(h) (Homo sapiens, UniProt Q04759); conditions: read-out: % Residual Activity
T8 construct: purchased Eurofins (KinaseProfiler)
T8 sequence (Q04759 whole entry): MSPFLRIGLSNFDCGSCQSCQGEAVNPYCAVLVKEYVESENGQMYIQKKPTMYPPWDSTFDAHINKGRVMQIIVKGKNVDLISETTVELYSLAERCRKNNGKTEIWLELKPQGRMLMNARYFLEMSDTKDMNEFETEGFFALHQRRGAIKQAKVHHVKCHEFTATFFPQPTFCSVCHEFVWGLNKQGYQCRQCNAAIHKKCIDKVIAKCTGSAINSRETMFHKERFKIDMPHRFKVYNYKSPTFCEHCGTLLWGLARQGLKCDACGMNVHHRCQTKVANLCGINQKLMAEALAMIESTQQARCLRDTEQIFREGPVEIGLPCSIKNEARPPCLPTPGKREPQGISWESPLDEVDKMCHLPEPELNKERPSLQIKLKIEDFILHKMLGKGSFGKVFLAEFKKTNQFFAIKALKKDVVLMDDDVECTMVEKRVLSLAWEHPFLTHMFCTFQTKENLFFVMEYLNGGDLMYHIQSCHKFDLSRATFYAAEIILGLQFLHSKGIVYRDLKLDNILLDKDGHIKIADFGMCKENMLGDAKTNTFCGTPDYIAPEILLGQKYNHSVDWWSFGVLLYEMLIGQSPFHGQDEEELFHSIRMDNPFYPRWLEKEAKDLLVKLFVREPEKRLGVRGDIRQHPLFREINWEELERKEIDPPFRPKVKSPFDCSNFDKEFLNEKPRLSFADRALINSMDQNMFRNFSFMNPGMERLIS
Procedure, shortened: as §1

IRE1(h) = target: T9, IRE1(h) (Homo sapiens, UniProt O75460); conditions: read-out: % Residual Activity
T9 construct: purchased Eurofins (KinaseProfiler)
Procedure, shortened: as §1

CDK6/cyclinD3(h) = target: T10, CDK6/cyclinD3(h) (Homo sapiens, UniProt Q00534); conditions: read-out: % Residual Activity
T10 construct: purchased Eurofins (KinaseProfiler)
Procedure, shortened: as §1

CHK2(h) = target: T11, CHK2(h) (Homo sapiens, UniProt O96017); conditions: read-out: % Residual Activity
T11 construct: purchased Eurofins (KinaseProfiler)
Procedure, shortened: as §1

Ret(V804M)(h) = target: T12, Ret(V804M)(h) (Homo sapiens, UniProt P07949, V804M); conditions: read-out: % Residual Activity
T12 construct: purchased Eurofins (KinaseProfiler)
Procedure, shortened: as §1

A-Raf(h) = target: T13, A-Raf(h) (Homo sapiens, UniProt P10398); conditions: read-out: % Residual Activity
T13 construct: purchased Eurofins (KinaseProfiler)
Procedure, shortened: as §1

MRCKγ(h) = target: T14, MRCKγ(h) (Homo sapiens, UniProt Q6DT37); conditions: read-out: % Residual Activity
T14 construct: purchased Eurofins (KinaseProfiler)
Procedure, shortened: as §1

MARK3(h) = target: T15, MARK3(h) (Homo sapiens, UniProt P27448); conditions: read-out: % Residual Activity
T15 construct: purchased Eurofins (KinaseProfiler)
Procedure, shortened: as §1

ULK2(h) = target: T16, ULK2(h) (Homo sapiens, UniProt Q8IYT8); conditions: read-out: % Residual Activity
T16 construct: purchased Eurofins (KinaseProfiler)
Procedure, shortened: as §1

cSRC(h) = target: T17, cSRC(h) (Homo sapiens, UniProt P12931); conditions: read-out: % Residual Activity
T17 construct: purchased Eurofins (KinaseProfiler)
Procedure, shortened: as §1

PKR(h) = target: T18, PKR(h) (Homo sapiens, UniProt P19525); conditions: read-out: % Residual Activity
T18 construct: purchased Eurofins (KinaseProfiler)
Procedure, shortened: as §1

CDK18/cyclinY(h) = target: T19, CDK18/cyclinY(h) (Homo sapiens, UniProt Q07002); conditions: read-out: % Residual Activity
T19 construct: purchased Eurofins (KinaseProfiler)
Procedure, shortened: as §1

CK1γ1(h) = target: T20, CK1γ1(h) (Homo sapiens, UniProt Q9HCP0); conditions: read-out: % Residual Activity
T20 construct: purchased Eurofins (KinaseProfiler)
Procedure, shortened: as §1

IKKε(h) = target: T21, IKKε(h) (Homo sapiens, UniProt Q14164); conditions: read-out: % Residual Activity
T21 construct: purchased Eurofins (KinaseProfiler)
T21 sequence (Q14164 whole entry): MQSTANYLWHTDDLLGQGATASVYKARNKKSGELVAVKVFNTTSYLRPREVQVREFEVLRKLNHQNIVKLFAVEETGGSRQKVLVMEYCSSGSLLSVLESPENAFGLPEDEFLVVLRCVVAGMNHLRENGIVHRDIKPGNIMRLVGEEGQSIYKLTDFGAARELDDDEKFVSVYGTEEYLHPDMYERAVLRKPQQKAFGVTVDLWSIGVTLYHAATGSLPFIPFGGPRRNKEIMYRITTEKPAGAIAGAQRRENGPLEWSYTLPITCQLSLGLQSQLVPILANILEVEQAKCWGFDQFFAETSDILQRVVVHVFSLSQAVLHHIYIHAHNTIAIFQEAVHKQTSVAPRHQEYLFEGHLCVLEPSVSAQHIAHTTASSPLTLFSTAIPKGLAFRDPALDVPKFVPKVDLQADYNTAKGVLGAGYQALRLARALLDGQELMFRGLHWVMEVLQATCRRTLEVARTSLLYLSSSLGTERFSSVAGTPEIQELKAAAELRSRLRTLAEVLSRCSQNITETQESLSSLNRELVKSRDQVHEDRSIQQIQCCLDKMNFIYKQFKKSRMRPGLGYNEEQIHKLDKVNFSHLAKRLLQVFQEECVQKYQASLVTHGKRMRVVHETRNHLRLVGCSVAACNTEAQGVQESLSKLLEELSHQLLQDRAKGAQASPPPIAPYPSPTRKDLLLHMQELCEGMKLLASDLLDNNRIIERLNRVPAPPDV
Procedure, shortened: as §1

PKD3(h) = target: T22, PKD3(h) (Homo sapiens, UniProt O94806); conditions: read-out: % Residual Activity
T22 construct: purchased Eurofins (KinaseProfiler)
Procedure, shortened: as §1

LATS1(h) = target: T23, LATS1(h) (Homo sapiens, UniProt O95835); conditions: read-out: % Residual Activity
T23 construct: purchased Eurofins (KinaseProfiler)
Procedure, shortened: as §1

DCAMKL2(h) = target: T24, DCAMKL2(h) (Homo sapiens, UniProt Q8N568); conditions: read-out: % Residual Activity
T24 construct: purchased Eurofins (KinaseProfiler)
Procedure, shortened: as §1

ErbB2(h) = target: T25, ErbB2(h) (Homo sapiens, UniProt P04626); conditions: read-out: % Residual Activity
T25 construct: purchased Eurofins (KinaseProfiler)
Procedure, shortened: as §1

PKCβII(h) = target: T26, PKCβII(h) (Homo sapiens, UniProt P05771); conditions: read-out: % Residual Activity
T26 construct: purchased Eurofins (KinaseProfiler)
T26 sequence (P05771 1-673 isoform P05771-2): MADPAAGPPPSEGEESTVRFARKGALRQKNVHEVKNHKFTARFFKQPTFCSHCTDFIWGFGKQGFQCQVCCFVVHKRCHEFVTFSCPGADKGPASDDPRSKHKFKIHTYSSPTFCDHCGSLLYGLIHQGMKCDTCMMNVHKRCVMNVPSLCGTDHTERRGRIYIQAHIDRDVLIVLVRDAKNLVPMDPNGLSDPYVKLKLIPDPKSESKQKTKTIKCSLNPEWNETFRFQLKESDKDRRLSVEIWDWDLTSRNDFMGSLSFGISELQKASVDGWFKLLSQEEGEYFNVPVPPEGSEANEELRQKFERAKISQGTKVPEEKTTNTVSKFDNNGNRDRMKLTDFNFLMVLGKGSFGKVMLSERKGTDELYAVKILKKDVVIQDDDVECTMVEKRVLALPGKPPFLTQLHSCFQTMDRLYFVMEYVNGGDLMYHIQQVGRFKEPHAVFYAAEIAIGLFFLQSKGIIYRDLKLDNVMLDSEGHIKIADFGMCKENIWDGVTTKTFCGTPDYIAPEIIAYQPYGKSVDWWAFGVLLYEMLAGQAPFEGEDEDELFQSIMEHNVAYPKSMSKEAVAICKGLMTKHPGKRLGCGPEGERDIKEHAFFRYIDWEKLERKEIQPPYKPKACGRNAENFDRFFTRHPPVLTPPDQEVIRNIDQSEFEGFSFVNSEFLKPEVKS
Procedure, shortened: as §1

VRK2(h) = target: T27, VRK2(h) (Homo sapiens, UniProt Q86Y07); conditions: read-out: % Residual Activity
T27 construct: purchased Eurofins (KinaseProfiler)
Procedure, shortened: as §1

DDR1(h) = target: T28, DDR1(h) (Homo sapiens, UniProt Q08345); conditions: read-out: % Residual Activity
T28 construct: purchased Eurofins (KinaseProfiler)
Procedure, shortened: as §1

DYRK1A(h) = target: T29, DYRK1A(h) (Homo sapiens, UniProt Q13627); conditions: read-out: % Residual Activity
T29 construct: purchased Eurofins (KinaseProfiler)
Procedure, shortened: as §1

MAPKAP-K3(h) = target: T30, MAPKAP-K3(h) (Homo sapiens, UniProt Q16644); conditions: read-out: % Residual Activity
T30 construct: purchased Eurofins (KinaseProfiler)
Procedure, shortened: as §1

Pim-1(h) = target: T31, Pim-1(h) (Homo sapiens, UniProt P11309)
T31 construct: purchased Eurofins (KinaseProfiler)
T31 sequence (P11309 whole entry): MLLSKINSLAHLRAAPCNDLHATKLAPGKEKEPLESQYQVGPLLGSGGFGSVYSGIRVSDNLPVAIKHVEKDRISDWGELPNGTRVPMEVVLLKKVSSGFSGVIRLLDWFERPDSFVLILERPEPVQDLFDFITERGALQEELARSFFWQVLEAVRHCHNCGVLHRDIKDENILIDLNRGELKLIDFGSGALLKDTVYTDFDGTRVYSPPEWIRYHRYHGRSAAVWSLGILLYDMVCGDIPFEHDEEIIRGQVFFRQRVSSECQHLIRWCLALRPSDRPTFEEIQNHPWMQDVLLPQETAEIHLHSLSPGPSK
Procedure, shortened: as §1

CHK1(h) = target: T32, CHK1(h) (Homo sapiens, UniProt O14757); conditions: read-out: % Residual Activity
T32 construct: purchased Eurofins (KinaseProfiler)
Procedure, shortened: as §1

PAK4(h) = target: T33, PAK4(h) (Homo sapiens, UniProt O96013); conditions: read-out: % Residual Activity
T33 construct: purchased Eurofins (KinaseProfiler)
Procedure, shortened: as §1

Rsk1(h) = target: T34, Rsk1(h) (Homo sapiens, UniProt Q15418); conditions: read-out: % Residual Activity
T34 construct: purchased Eurofins (KinaseProfiler)
Procedure, shortened: as §1

CDK7/cyclinH/MAT1(h) = target: T35, CDK7/cyclinH/MAT1(h) (Homo sapiens, UniProt P50613); conditions: read-out: % Residual Activity
T35 construct: purchased Eurofins (KinaseProfiler)
Procedure, shortened: as §1

Met(M1268T)(h) = target: T36, Met(M1268T)(h) (Homo sapiens, UniProt P08581, M1250T); conditions: read-out: % Residual Activity
T36 construct: purchased Eurofins (KinaseProfiler)
Procedure, shortened: as §1

EphA8(h) = target: T37, EphA8(h) (Homo sapiens, UniProt P29322); conditions: read-out: % Residual Activity
T37 construct: purchased Eurofins (KinaseProfiler)
Procedure, shortened: as §1

GCN2(h) = target: T38, GCN2(h) (Homo sapiens, UniProt Q9P2K8); conditions: read-out: % Residual Activity
T38 construct: purchased Eurofins (KinaseProfiler)
Procedure, shortened: as §1

With Cc1cc(/C=C/C#N)cc(C)c1Nc1ccnc(Nc2ccc(C#N)cc2)n1 [rilpivirine, (E)-4-((4-((4-(2-cyanoethenyl)-2,6-dimethylphenyl)amino)pyrimidin-2-yl)amino)benzonitrile] the remaining activity at 1 µM (MAP4K4(h)) was 79%, the remaining activity at 1 µM (PKCδ(h)) was 72% and the remaining activity at 1 µM (GSK3α(h)) was 80%. The remaining activity at 1 µM (Rsk4(h)) was 99%, the remaining activity at 1 µM (PEK(h)) was 82% and the remaining activity at 1 µM (IRR(h)) was 95%. For the same compound, the remaining activity at 1 µM (FAK(h)) was 86%, the remaining activity at 1 µM (PKCθ(h)) was 66% and the remaining activity at 1 µM (IRE1(h)) was 100%. For the same compound, the remaining activity at 1 µM (CDK6/cyclinD3(h)) was 96%, the remaining activity at 1 µM (CHK2(h)) was 93% and the remaining activity at 1 µM (Ret(V804M)(h)) was 92%. For the same compound, the remaining activity at 1 µM (A-Raf(h)) was 101%, the remaining activity at 1 µM (MRCKγ(h)) was 90% and the remaining activity at 1 µM (MARK3(h)) was 87%. For the same compound, the remaining activity at 1 µM (ULK2(h)) was 90%, the remaining activity at 1 µM (cSRC(h)) was 53% and the remaining activity at 1 µM (PKR(h)) was 92%. For the same compound, the remaining activity at 1 µM (CDK18/cyclinY(h)) was 93%, the remaining activity at 1 µM (CK1γ1(h)) was 80% and the remaining activity at 1 µM (IKKε(h)) was 82%. For the same compound, the remaining activity at 1 µM (PKD3(h)) was 76%, the remaining activity at 1 µM (LATS1(h)) was 86% and the remaining activity at 1 µM (DCAMKL2(h)) was 122%. The remaining activity at 1 µM (ErbB2(h)) was 116%, the remaining activity at 1 µM (PKCβII(h)) was 94% and the remaining activity at 1 µM (VRK2(h)) was 88%. The remaining activity at 1 µM (DDR1(h)) was 46%, the remaining activity at 1 µM (DYRK1A(h)) was 56% and the remaining activity at 1 µM (MAPKAP-K3(h)) was 90%. For the same compound, the remaining activity at 1 µM (Pim-1(h); 1 μM, read-out: % Residual Activity) was 22%, the inhibition at 1 µM (Pim-1(h); PIM1, 1 μM, read-out: inhibitory activity) was over 70% and the remaining activity at 1 µM (CHK1(h)) was 100%. It also gave a remaining activity at 1 µM (PAK4(h)) of 87%, a remaining activity at 1 µM (Rsk1(h)) of 91% and a remaining activity at 1 µM (CDK7/cyclinH/MAT1(h)) of 78%. For the same compound, the remaining activity at 1 µM (Met(M1268T)(h)) was 109%, the remaining activity at 1 µM (EphA8(h)) was 60% and the remaining activity at 1 µM (GCN2(h)) was 93%.
